What was measured:
bedstraw = test: Test B pre/postemergence bedstraw; type: in vivo, Galium aparine
Outline: (§1)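 Test chemicals in a non-phytotoxic solvent mixture with surfactant were sprayed preemergence onto planted seeds and postemergence onto plants 2 to 18 cm tall (1- to 4-leaf stage). After twelve to sixteen days in a greenhouse, injury was visually rated against untreated controls from 0 (no effect) to 10 (complete control).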

blackgrass = test: Test B pre/postemergence blackgrass; type: in vivo, Alopecurus myosuroides
Outline: as §1

surinam grass = test: Test B pre/postemergence surinam grass; type: in vivo, Brachiaria decumbens
Outline: as §1

corn = test: Test B pre/postemergence corn; type: in vivo, Zea mays
Outline: as §1

giant foxtail = test: Test B pre/postemergence giant foxtail; type: in vivo, Setaria faberii
Outline: as §1

morningglory = test: Test B pre/postemergence morningglory; type: in vivo, Ipomoea hederacea
Outline: as §1

pigweed = test: Test B pre/postemergence pigweed; type: in vivo, Amaranthus retroflexus
Outline: as §1

rape = test: Test B pre/postemergence rape; type: in vivo, Brassica napus
Outline: as §1

soybean = test: Test B pre/postemergence soybean; type: in vivo, Glycine max
Outline: as §1

sugar beet = test: Test B pre/postemergence sugar beet; type: in vivo, Beta vulgaris
Outline: as §1

velvetleaf = test: Test B pre/postemergence velvetleaf; type: in vivo, Abutilon theophrasti
Outline: as §1

purple nutsedge = test: Test B pre/postemergence purple nutsedge; type: in vivo, Cyperus rotundus
Outline: as §1

rice = test: Test B flood test rice; type: in vivo, Oryza sativa
Outline: (§2)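 Plants were grown to the 2-leaf stage before treatment with test chemical, then held in a greenhouse for twelve to sixteen days. Injury was visually rated against untreated controls on a 0–10 scale, where 0 is no effect and 10 is complete control.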

smallflower flatsedge = test: Test B flood test smallflower flatsedge; type: in vivo, Cyperus difformis
Outline: as §2

duck salad = test: Test B flood test duck salad; type: in vivo, Heteranthera limosa
Outline: as §2

bamyardgrass = test: Test B flood test barnyardgrass; type: in vivo, Echinochloa crus-galli
Outline: as §2

[1] = Preemergence, Rate 62 g/ha, scale of 0 to 10 where 0 is no effect and 10 is complete control
[2] = Preemergence, Rate 250 g/ha, scale of 0 to 10 where 0 is no effect and 10 is complete control
[3] = Preemergence, Rate 500 g/ha, scale of 0 to 10 where 0 is no effect and 10 is complete control
[4] = Rate 62 g/ha, Postemergence, scale 0 to 10, 0 no effect, 10 complete control
[5] = Rate 125 g/ha, Postemergence, scale of 0 to 10 where 0 is no effect and 10 is complete control
[6] = Rate 250 g/ha, Postemergence, scale of 0 to 10 where 0 is no effect and 10 is complete control
[7] = Rate 500 g/ha, Postemergence, scale 0 to 10, 0 no effect, 10 complete control
[8] = Rate 62 g/ha, headed Pre-emergence (flood test species), scale 0 to 10 (0 no effect, 10 complete control)
[9] = Rate 125 g/ha, Pre-emergence, flood test species, scale 0 to 10 where 0 is no effect and 10 is complete control
[10] = Rate 250 g/ha, Pre-emergence, flood-test species, scale 0 to 10, 0 is no effect, 10 is complete control
[11] = Rate 500 g/ha, Pre-emergence, flood test species, scale 0 to 10 (0 no effect, 10 complete control)
[12] = Pre-emergence, Rate 1000 g/ha, scale 0 to 10 (0 no effect, 10 complete control)

## Cc1ccccc1-n1c(=O)on(C(=O)N(c2ccncc2)C(C)C)c1=O [Compound 301]
bedstraw; [1]
  Bedstraw plant response rating: 0
bedstraw; Preemergence, Rate 125 g/ha
  Bedstraw plant response rating (0 to 10 scale): 0
bedstraw; [2]
  Bedstraw plant response rating: 0
bedstraw; [3]
  Bedstraw plant response rating: 0
bedstraw; [4]
  Bedstraw plant response rating: 0
bedstraw; [5]
  Bedstraw plant response rating: 0
blackgrass; [1]
  Blackgrass plant response rating: 0
blackgrass; Preemergence, Rate 125 g/ha
  Blackgrass plant response rating (0 to 10 scale): 0
blackgrass; [2]
  Blackgrass plant response rating: 0
blackgrass; [3]
  Blackgrass plant response rating: 0
blackgrass; [4]
  Blackgrass plant response rating: 0
blackgrass; [5]
  Blackgrass plant response rating: 0
blackgrass; [6]
  Plant response rating, Blackgrass: 0
blackgrass; [7]
  Blackgrass plant response rating: 0
Surinam grass; [1]
  B. signalgrass plant response rating: 0
Surinam grass; Preemergence, Rate 125 g/ha
  B. signalgrass plant response rating (0 to 10 scale, 0 is no effect, 10 is complete control): 0
Surinam grass; [2]
  B. signalgrass plant response rating: 0
Surinam grass; [3]
  B. signalgrass plant response rating: 0
Surinam grass; [4]
  B. signalgrass plant response rating: 0
Surinam grass; [5]
  B. signalgrass plant response rating: 0
Surinam grass; [6]
  Plant response rating, B. signalgrass: 0
Surinam grass; [7]
  B. signalgrass plant response rating: 0
corn; [1]
  Corn plant response rating: 0
corn; Preemergence, Rate 125 g/ha
  Corn plant response rating (0 to 10 scale): 0
corn; [2]
  Corn plant response rating: 0
corn; [3]
  Corn plant response rating: 0
corn; [4]
  Corn plant response rating: 0
corn; [5]
  Corn plant response rating: 0
corn; [6]
  Plant response rating, Corn: 0
corn; [7]
  Corn plant response rating: 0
Giant foxtail; [1]
  Giant foxtail plant response rating: 0
Giant foxtail; Preemergence, Rate 125 g/ha
  Giant foxtail plant response rating (0 to 10 scale): 0
Giant foxtail; [2]
  Giant foxtail plant response rating: 0
Giant foxtail; [3]
  Giant foxtail plant response rating: 0
Giant foxtail; [4]
  Giant foxtail plant response rating: 0
Giant foxtail; [5]
  Giant foxtail plant response rating: 0
Giant foxtail; [6]
  Plant response rating, Giant foxtail: 0
morningglory; [1]
  Morningglory plant response rating: 0
morningglory; Preemergence, Rate 125 g/ha
  Morningglory plant response rating (0 to 10 scale): 0
morningglory; [2]
  Morningglory plant response rating: 0
morningglory; [3]
  Morningglory plant response rating: 0
morningglory; [4]
  Morningglory plant response rating: 0
morningglory; [5]
  Morningglory plant response rating: 0
morningglory; [6]
  Plant response rating, Morningglory: 0
pigweed; [1]
  Redroot pigweed plant response rating: 0
pigweed; Preemergence, Rate 125 g/ha
  Redroot pigweed plant response rating (0 to 10 scale): 0
pigweed; [2]
  Redroot pigweed plant response rating: 0
pigweed; [3]
  Redroot pigweed plant response rating: 0
pigweed; [4]
  Redroot pigweed plant response rating: 0
pigweed; [5]
  Redroot pigweed plant response rating: 0
pigweed; [6]
  Plant response rating, Redroot pigweed: 0
rape; [1]
  Rape plant response rating: 0
rape; Preemergence, Rate 125 g/ha
  Rape plant response rating (0 to 10 scale): 0
rape; [2]
  Rape plant response rating: 0
rape; [3]
  Rape plant response rating: 0
rape; [4]
  Rape plant response rating: 0
rape; [5]
  Rape plant response rating: 0
rape; [6]
  Plant response rating, Rape: 0
soybean; [1]
  Soybean plant response rating: 0
soybean; Preemergence, Rate 125 g/ha
  Soybean plant response rating (0 to 10 scale): 0
soybean; [2]
  Soybean plant response rating: 0
soybean; [3]
  Soybean plant response rating: 0
soybean; [4]
  Soybean plant response rating: 0
soybean; [5]
  Soybean plant response rating: 0
soybean; [6]
  Plant response rating, Soybean: 0
Sugar beet; [1]
  Sugarbeets plant response rating: 0
Sugar beet; Preemergence, Rate 125 g/ha
  Sugarbeets plant response rating (0 to 10 scale): 0
Sugar beet; [2]
  Sugarbeets plant response rating: 0
Sugar beet; [3]
  Sugarbeets plant response rating: 0
Sugar beet; [4]
  Sugarbeets plant response rating: 0
Sugar beet; [5]
  Sugarbeets plant response rating: 0
Sugar beet; [6]
  Plant response rating, Sugarbeets: 0
velvetleaf; [1]
  Velvetleaf plant response rating: 0
velvetleaf; Preemergence, Rate 125 g/ha
  Velvetleaf plant response rating (0 to 10 scale): 0
velvetleaf; [2]
  Velvetleaf plant response rating: 0
velvetleaf; [3]
  Velvetleaf plant response rating: 0
velvetleaf; [4]
  Velvetleaf plant response rating: 0
velvetleaf; [5]
  Velvetleaf plant response rating: 0
velvetleaf; [6]
  Plant response rating, Velvetleaf: 0
Purple nutsedge; [1]
  Nutsedge plant response rating: 0
Purple nutsedge; Preemergence, Rate 125 g/ha
  Nutsedge plant response rating (0 to 10 scale): 0
Purple nutsedge; [2]
  Nutsedge plant response rating: 0
Purple nutsedge; [3]
  Nutsedge plant response rating: 0
Purple nutsedge; [4]
  Nutsedge plant response rating: 0
Purple nutsedge; [5]
  Nutsedge plant response rating: 0
Purple nutsedge; [6]
  Plant response rating, Nutsedge: 0
rice; [8]
  Rice plant response rating: 0
rice; [9]
  Rice plant response rating: 0
rice; [10]
  Rice plant response rating: 0
rice; [11]
  Rice plant response rating: 0
Smallflower flatsedge; [8]
  S. Flatsedge plant response rating: 0
Smallflower flatsedge; [9]
  S. Flatsedge plant response rating: 0
Smallflower flatsedge; [10]
  S. Flatsedge plant response rating: 0
Smallflower flatsedge; [11]
  S. Flatsedge plant response rating: 0
Duck salad; [8]
  Ducksalad plant response rating: 0
Duck salad; [9]
  Ducksalad plant response rating: 0
Duck salad; [10]
  Ducksalad plant response rating: 0
Duck salad; [11]
  Ducksalad plant response rating: 0
bamyardgrass; [8]
  Barnyardgrass plant response rating: 0
bamyardgrass; [9]
  Barnyardgrass plant response rating: 0
bamyardgrass; [10]
  Barnyardgrass plant response rating: 0
bamyardgrass; [11]
  Barnyardgrass plant response rating: 0

## Cc1ccccc1-n1c(=O)on(C(=O)N(c2ccc3ccccc3c2)C(C)C)c1=O [Compound 306]
bedstraw; [1]
  Bedstraw plant response rating: 0
bedstraw; Preemergence, Rate 125 g/ha
  Bedstraw plant response rating (0 to 10 scale): 0
bedstraw; [2]
  Bedstraw plant response rating: 0
bedstraw; [3]
  Bedstraw plant response rating: 0
bedstraw; [4]
  Bedstraw plant response rating: 0
bedstraw; [5]
  Bedstraw plant response rating: 0
bedstraw; [6]
  Plant response rating, Bedstraw: 0
bedstraw; [7]
  Bedstraw plant response rating: 0
blackgrass; [1]
  Blackgrass plant response rating: 0
blackgrass; Preemergence, Rate 125 g/ha
  Blackgrass plant response rating (0 to 10 scale): 0
blackgrass; [2]
  Blackgrass plant response rating: 0
blackgrass; [3]
  Blackgrass plant response rating: 0
blackgrass; [4]
  Blackgrass plant response rating: 0
blackgrass; [5]
  Blackgrass plant response rating: 0
blackgrass; [6]
  Plant response rating, Blackgrass: 0
blackgrass; [7]
  Blackgrass plant response rating: 0
Surinam grass; [1]
  B. signalgrass plant response rating: 0
Surinam grass; Preemergence, Rate 125 g/ha
  B. signalgrass plant response rating (0 to 10 scale, 0 is no effect, 10 is complete control): 0
Surinam grass; [2]
  B. signalgrass plant response rating: 0
Surinam grass; [3]
  B. signalgrass plant response rating: 0
Surinam grass; [4]
  B. signalgrass plant response rating: 0
Surinam grass; [5]
  B. signalgrass plant response rating: 0
Surinam grass; [6]
  Plant response rating, B. signalgrass: 0
Surinam grass; [7]
  B. signalgrass plant response rating: 0
corn; [1]
  Corn plant response rating: 0
corn; Preemergence, Rate 125 g/ha
  Corn plant response rating (0 to 10 scale): 0
corn; [2]
  Corn plant response rating: 0
corn; [3]
  Corn plant response rating: 0
corn; [4]
  Corn plant response rating: 0
corn; [5]
  Corn plant response rating: 0
corn; [6]
  Plant response rating, Corn: 0
corn; [7]
  Corn plant response rating: 0
Giant foxtail; [1]
  Giant foxtail plant response rating: 2
Giant foxtail; Preemergence, Rate 125 g/ha
  Giant foxtail plant response rating (0 to 10 scale): 2
Giant foxtail; [2]
  Giant foxtail plant response rating: 8
Giant foxtail; [3]
  Giant foxtail plant response rating: 9
Giant foxtail; [4]
  Giant foxtail plant response rating: 0
Giant foxtail; [5]
  Giant foxtail plant response rating: 0
Giant foxtail; [6]
  Plant response rating, Giant foxtail: 0
morningglory; [1]
  Morningglory plant response rating: 0
morningglory; Preemergence, Rate 125 g/ha
  Morningglory plant response rating (0 to 10 scale): 0
morningglory; [2]
  Morningglory plant response rating: 0
morningglory; [3]
  Morningglory plant response rating: 0
morningglory; [4]
  Morningglory plant response rating: 2
morningglory; [5]
  Morningglory plant response rating: 2
pigweed; [1]
  Redroot pigweed plant response rating: 0
pigweed; Preemergence, Rate 125 g/ha
  Redroot pigweed plant response rating (0 to 10 scale): 0
pigweed; [2]
  Redroot pigweed plant response rating: 0
pigweed; [3]
  Redroot pigweed plant response rating: 0
pigweed; [4]
  Redroot pigweed plant response rating: 0
pigweed; [5]
  Redroot pigweed plant response rating: 0
pigweed; [6]
  Plant response rating, Redroot pigweed: 0
rape; [1]
  Rape plant response rating: 0
rape; Preemergence, Rate 125 g/ha
  Rape plant response rating (0 to 10 scale): 0
rape; [2]
  Rape plant response rating: 0
rape; [3]
  Rape plant response rating: 0
rape; [4]
  Rape plant response rating: 0
rape; [5]
  Rape plant response rating: 0
rape; [6]
  Plant response rating, Rape: 0
soybean; [1]
  Soybean plant response rating: 0
soybean; Preemergence, Rate 125 g/ha
  Soybean plant response rating (0 to 10 scale): 0
soybean; [2]
  Soybean plant response rating: 0
soybean; [3]
  Soybean plant response rating: 0
soybean; [4]
  Soybean plant response rating: 1
soybean; [5]
  Soybean plant response rating: 2
soybean; [6]
  Plant response rating, Soybean: 2
Sugar beet; [1]
  Sugarbeets plant response rating: 0
Sugar beet; Preemergence, Rate 125 g/ha
  Sugarbeets plant response rating (0 to 10 scale): 0
Sugar beet; [2]
  Sugarbeets plant response rating: 0
Sugar beet; [3]
  Sugarbeets plant response rating: 0
Sugar beet; [4]
  Sugarbeets plant response rating: 0
Sugar beet; [5]
  Sugarbeets plant response rating: 0
Sugar beet; [6]
  Plant response rating, Sugarbeets: 0
velvetleaf; [1]
  Velvetleaf plant response rating: 0
velvetleaf; Preemergence, Rate 125 g/ha
  Velvetleaf plant response rating (0 to 10 scale): 0
velvetleaf; [2]
  Velvetleaf plant response rating: 0
velvetleaf; [3]
  Velvetleaf plant response rating: 0
velvetleaf; [4]
  Velvetleaf plant response rating: 0
velvetleaf; [5]
  Velvetleaf plant response rating: 0
velvetleaf; [6]
  Plant response rating, Velvetleaf: 0
Purple nutsedge; [1]
  Nutsedge plant response rating: 0
Purple nutsedge; Preemergence, Rate 125 g/ha
  Nutsedge plant response rating (0 to 10 scale): 0
Purple nutsedge; [2]
  Nutsedge plant response rating: 0
Purple nutsedge; [3]
  Nutsedge plant response rating: 0
Purple nutsedge; [4]
  Nutsedge plant response rating: 0
Purple nutsedge; [5]
  Nutsedge plant response rating: 0
Purple nutsedge; [6]
  Plant response rating, Nutsedge: 0
rice; [12]
  Rice plant response rating: 0
rice; [9]
  Rice plant response rating: 0
rice; [10]
  Rice plant response rating: 0
rice; [11]
  Rice plant response rating: 0
Smallflower flatsedge; [12]
  S. Flatsedge plant response rating: 0
Smallflower flatsedge; [9]
  S. Flatsedge plant response rating: 0
Smallflower flatsedge; [10]
  S. Flatsedge plant response rating: 0
Smallflower flatsedge; [11]
  S. Flatsedge plant response rating: 0
Duck salad; [12]
  Ducksalad plant response rating: 0
Duck salad; [9]
  Ducksalad plant response rating: 0
Duck salad; [10]
  Ducksalad plant response rating: 0
Duck salad; [11]
  Ducksalad plant response rating: 0
bamyardgrass; [12]
  Barnyardgrass plant response rating: 0
bamyardgrass; [9]
  Barnyardgrass plant response rating: 0
bamyardgrass; [10]
  Barnyardgrass plant response rating: 0
bamyardgrass; [11]
  Barnyardgrass plant response rating: 0

Source: US6737383B1, “Herbicidal oxadiazolidines” (priority 1999, dated 2004)
